Where two headings read alike, the source gives them in different places.
Legend:
[1] = target: IKZF2 (Helios) (Homo sapiens (Human), UniProt Q96SW2+Q9UKS7); experiment: IKZF2 reporter degradation assay (HEK 293T IKZF2-mNeonGreen reporter cell line); assay type: cell-based; conditions: 24 hour incubation; for inhibition at 1 µM: HEK-293T, 24 h
Text: (§1) Polycistronic plasmids were constructed for the mammalian expression of fluorescent reporter fusions of human transcription factors IKZF1 (Ikaros), IKZF2 (Helios), and IKZF3 (Aiolos). The respective protein sequences had their C-terminal end joined to a GGGGS linker repeated three times followed by mNeonGreen, P2A sequence, and mScarlet. The DNA sequences of the open reading frames are as follows:
(§2) IKZF1, IKZF2, and IKZF3 constructs were cloned into the UCOE Hygromycin expression vectors (Millipore Sigma). Reporter constructs were transfected using cationic lipid reagents into adherent HEK 293T cells and stable integrants were selected by treatment with 200 μg/mL hygromycin B. Clonal populations were obtained from the population of stable integrants either by limiting dilution or fluorescence activated cell sorting.
(§3) The clonal stable cell lines were maintained under constant 200 μg/mL hygromycin B selection while being passaged for use in the degradation assays. […] The fluorescence intensity of the IKZF1/2/3-mNeonGreen (FITC channel) and mScarlet (PE channel) reporters were routinely analyzed by flow cytometry to confirm consistent expression levels between experiments.
(§4) The IKZF1/IKZF2/IKZF3 degradation assays were carried out by harvesting the HEK 293T reporter cell lines and resuspending the cells in media formulated for reduced background fluorescence (FluoroBrite; Thermo Fisher). The respective cell lines were seeded at a density of 4000 cells/well into black-walled 384-well optical grade assay tissue culture plates. The cells were incubated overnight at 37° C. to allow for attachment to the assay plate. Dilutions of the compounds were prepared in DMSO from 10 mM compound stocks. The assay plates were treated with appropriate concentrations of the compounds by dispensing the DMSO dilutions in quadruplicate wells with an upper limit of 0.5% final DMSO.
(§5) After 24 hour incubation with the compounds, the assay plates were imaged on an ImageXpress Pico microscopy system (cells maintained at 37° C. during imaging) to obtain the fluorescent readouts. The assay plates were imaged in the FITC and Tetramethylrhodamine (TRITC) channels to obtain the mNeonGreen fluorescence intensity (reporter degradation data) and mScarlet fluorescence intensity (for cell segmentation). 293T-IKZF1 and 293T-IKZF3 reporter cell lines were imaged with exposures of 500 milliseconds (ms) for both FITC and TRITC channels, while the 293T-IKZF2 reporter cell line was imaged with exposures of 1000 ms for FITC and 1250 ms for TRITC. The resulting data was analyzed with Cell Reporter Xpress software using the 2-channel cell scoring analysis with a “percent positive” readout. The TRITC channel was selected for the “nuclei” segmentation with a threshold of 20 while the FITC channel was selected for the “Marker 1” segmentation and a threshold of 100 for the IKZF and IKZF3 reporter lines. […] The minimum segmentation width was set to 6 micrometers and the maximum segmentation width was set to 15 micrometers for all cell lines. The DC50 calculations were determined by regression to best fit four-parameter logistic curves using GraphPad Prism.

[2] = target: IKZF1 (Ikaros) (Homo sapiens (Human), UniProt Q13422+Q96SW2); experiment: IKZF1 reporter degradation assay (HEK 293T IKZF1-mNeonGreen reporter cell line); assay type: cell-based; conditions: HEK 293T reporter cells, 24 hour incubation
Chain of IKZF1 (Ikaros) (Q13422 whole entry): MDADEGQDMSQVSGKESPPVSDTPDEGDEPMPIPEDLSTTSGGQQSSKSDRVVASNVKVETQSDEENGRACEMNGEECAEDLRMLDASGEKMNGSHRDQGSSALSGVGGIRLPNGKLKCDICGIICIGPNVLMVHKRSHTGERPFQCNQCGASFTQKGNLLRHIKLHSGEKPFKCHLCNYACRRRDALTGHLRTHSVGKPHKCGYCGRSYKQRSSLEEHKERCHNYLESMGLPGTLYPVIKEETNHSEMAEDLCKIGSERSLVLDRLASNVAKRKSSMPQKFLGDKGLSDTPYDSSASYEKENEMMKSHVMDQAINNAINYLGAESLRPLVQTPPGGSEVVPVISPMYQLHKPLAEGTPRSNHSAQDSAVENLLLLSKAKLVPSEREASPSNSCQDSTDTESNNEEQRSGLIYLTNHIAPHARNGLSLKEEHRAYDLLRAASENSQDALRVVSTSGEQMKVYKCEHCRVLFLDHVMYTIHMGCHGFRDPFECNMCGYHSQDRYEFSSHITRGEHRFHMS
Chain of IKZF1 (Ikaros) (Q96SW2 whole entry): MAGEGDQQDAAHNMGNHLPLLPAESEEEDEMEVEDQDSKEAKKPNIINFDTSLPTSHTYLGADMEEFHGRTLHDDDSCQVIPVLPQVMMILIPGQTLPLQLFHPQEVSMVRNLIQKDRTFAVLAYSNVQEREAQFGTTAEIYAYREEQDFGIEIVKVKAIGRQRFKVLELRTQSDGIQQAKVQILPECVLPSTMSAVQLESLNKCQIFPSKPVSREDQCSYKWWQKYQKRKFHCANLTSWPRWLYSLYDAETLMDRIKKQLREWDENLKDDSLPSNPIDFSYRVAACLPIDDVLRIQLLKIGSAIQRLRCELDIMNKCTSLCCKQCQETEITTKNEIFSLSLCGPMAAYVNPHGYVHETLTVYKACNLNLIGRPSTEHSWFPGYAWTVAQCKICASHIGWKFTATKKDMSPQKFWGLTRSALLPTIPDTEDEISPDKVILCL
Chain of IKZF1 (Ikaros) (Q16531 whole entry partner): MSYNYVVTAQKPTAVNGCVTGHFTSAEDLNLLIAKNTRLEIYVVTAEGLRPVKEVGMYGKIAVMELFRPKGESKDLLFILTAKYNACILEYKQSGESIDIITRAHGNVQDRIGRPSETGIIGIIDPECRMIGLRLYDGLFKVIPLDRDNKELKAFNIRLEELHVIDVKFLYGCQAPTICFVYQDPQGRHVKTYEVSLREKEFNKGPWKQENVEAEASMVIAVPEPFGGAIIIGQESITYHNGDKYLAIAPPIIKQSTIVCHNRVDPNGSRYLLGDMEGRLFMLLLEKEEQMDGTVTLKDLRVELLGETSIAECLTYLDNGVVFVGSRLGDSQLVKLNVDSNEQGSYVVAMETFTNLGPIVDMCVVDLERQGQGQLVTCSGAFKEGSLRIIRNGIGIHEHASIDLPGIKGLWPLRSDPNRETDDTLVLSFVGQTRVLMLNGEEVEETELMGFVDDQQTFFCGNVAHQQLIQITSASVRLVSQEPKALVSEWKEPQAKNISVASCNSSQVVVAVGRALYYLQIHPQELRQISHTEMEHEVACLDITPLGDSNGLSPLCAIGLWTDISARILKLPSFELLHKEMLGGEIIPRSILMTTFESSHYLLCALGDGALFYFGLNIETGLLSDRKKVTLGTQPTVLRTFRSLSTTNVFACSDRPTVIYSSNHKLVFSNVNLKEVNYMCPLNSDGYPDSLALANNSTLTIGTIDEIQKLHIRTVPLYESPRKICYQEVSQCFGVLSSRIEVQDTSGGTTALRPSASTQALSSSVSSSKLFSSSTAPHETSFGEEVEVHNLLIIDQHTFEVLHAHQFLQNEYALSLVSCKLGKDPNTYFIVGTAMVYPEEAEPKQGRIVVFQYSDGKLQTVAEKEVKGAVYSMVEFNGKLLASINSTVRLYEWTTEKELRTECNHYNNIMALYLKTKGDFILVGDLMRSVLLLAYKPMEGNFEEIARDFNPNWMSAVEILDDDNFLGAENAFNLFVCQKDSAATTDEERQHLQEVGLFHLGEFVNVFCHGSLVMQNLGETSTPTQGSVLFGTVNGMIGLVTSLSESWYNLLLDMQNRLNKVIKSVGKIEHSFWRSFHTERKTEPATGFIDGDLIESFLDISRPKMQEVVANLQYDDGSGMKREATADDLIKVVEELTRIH
Text: as §1, §2, §3, §4, §5

[3] = target: GSPT1 (Homo sapiens (Human), UniProt P15170+Q96SW2); experiment: GSPT1 reporter degradation assay (HEK293 hGSPT1 HiBiT-tagged cells); assay type: cell-based; conditions: 24 hour incubation
Chain of GSPT1 (P15170 whole entry): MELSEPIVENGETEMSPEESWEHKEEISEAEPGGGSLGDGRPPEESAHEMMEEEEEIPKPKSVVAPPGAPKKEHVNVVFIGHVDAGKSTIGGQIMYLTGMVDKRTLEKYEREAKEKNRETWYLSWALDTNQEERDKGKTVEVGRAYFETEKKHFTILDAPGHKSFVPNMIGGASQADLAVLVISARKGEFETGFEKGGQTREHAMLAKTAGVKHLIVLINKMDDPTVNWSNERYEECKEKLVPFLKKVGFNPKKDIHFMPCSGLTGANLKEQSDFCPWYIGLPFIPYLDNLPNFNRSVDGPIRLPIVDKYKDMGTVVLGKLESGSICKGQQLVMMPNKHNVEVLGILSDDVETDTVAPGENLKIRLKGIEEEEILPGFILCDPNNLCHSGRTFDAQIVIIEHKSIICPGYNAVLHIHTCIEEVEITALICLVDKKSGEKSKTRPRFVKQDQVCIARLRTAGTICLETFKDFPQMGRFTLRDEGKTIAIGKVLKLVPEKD
Chain of GSPT1 (Q96SW2 whole entry): as the sequence (Q96SW2 whole entry) above
Chain of GSPT1 (Q16531 whole entry partner): as the sequence (Q16531 whole entry partner) above
Description: HEK293_hGSPT1_HiBiT-tagged cells were generated using CRISPR-Cas12a technology. Briefly, ˜400,000 HEK293 cells were transiently co-transfected with precomplexed ribonuclear proteins (RNPs) consisting of […] of crRNA (IDT), […] of Cas12a protein (IDT), 3 μg of ssODN donor (IDT; AltRTM modifications), 78 pmol of electroporation enhancer (IDT), and 200 ng of pMaxGFP (Lonza). The transfection was performed via nucleofection (Lonza, 4D-Nucleofector X-unit) using solution P3 and program CM-130 in a (20 μL) cuvette. Five days post-nucleofection, cells were single-cell-sorted for GFP+ (transfected) cells by FACs in 96-well plates and clonally selected. Clones were screened and verified for the desired modification via targeted deep sequencing using gene-specific primers with partial Illumina adapter overhangs as previously described. In brief, clonal cell pellets were harvested, lysed, and used to generate gene-specific amplicons with partial Illumina adapters in PCR #1. Amplicons were indexed in PCR #2 and pooled with other targeted amplicons for other loci to create sequence diversity. Additionally, 10% PhiX sequencing control V3 (Illumina) was added to the pooled amplicon library prior to running the sample on a Miseq Sequencer System (Illumina) to generate paired 2×250 bp reads. Samples were demultiplexed using the index sequences, fastq files were generated, and NGS analysis was performed using CRIS.py.
The GSTP1 degradation assay was carried out by harvesting the HEK 293T reporter cell lines and resuspending the cells in media formulated for reduced background fluorescence (FluoroBrite; Thermo Fisher). The respective cell lines were seeded at a density of 8,000 cells/well into white-opaque 384-well optical grade assay tissue culture plates (Greiner 781080-20). The cells were incubated overnight at 37° C. to allow for attachment to the assay plate. Dilutions of the compounds were prepared in DMSO from 10 mM compound stocks. […] Plates were centrifuged at 320×g for 2 minutes at room temperature, and subsequently incubated at 37° C.
After 24 hour incubation with the compounds, the plates were allowed to cool to room temperature for 10 minutes. 30 μL of HiBiT lytic buffer+1:50 HiBiT substrate Solution were added to each well. Plates were centrifuged at 320×g for 2 minutes at room temperature and then incubated with shaking at room temperature for 10 minutes covered with foil. Plates were read on a CLARIOstar microplate reader (BMG LabTech), measuring at 450 nm (donor emission) and 610 nm or 630 nm (acceptor emission). The DC50 values were determined by regression to best fit four-parameter logistic curves using GraphPad Prism.

[4] = target: IKZF3 (Aiolos) (Homo sapiens (Human), UniProt Q96SW2+Q9UKT9); experiment: IKZF3 reporter degradation assay (HEK 293T IKZF3-mNeonGreen reporter cell line); assay type: cell-based; conditions: HEK 293T reporter cells, 24 hour incubation
Chain of IKZF3 (Aiolos) (Q9UKT9 whole entry): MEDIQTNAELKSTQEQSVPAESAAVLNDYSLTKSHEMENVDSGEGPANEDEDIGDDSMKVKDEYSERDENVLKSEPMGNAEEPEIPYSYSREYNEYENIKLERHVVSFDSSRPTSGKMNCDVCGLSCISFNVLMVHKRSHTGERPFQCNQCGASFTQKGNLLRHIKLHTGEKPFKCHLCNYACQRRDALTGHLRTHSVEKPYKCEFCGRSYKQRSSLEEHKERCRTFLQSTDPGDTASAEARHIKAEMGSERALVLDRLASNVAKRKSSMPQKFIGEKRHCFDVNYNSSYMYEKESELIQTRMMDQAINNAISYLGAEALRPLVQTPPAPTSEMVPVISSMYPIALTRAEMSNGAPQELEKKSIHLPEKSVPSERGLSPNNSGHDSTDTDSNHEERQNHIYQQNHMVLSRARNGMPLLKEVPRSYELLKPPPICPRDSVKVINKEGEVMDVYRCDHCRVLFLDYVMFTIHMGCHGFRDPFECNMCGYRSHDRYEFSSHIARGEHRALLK
Chain of IKZF3 (Aiolos) (Q96SW2 whole entry): as the sequence (Q96SW2 whole entry) above
Chain of IKZF3 (Aiolos) (Q16531 whole entry partner): as the sequence (Q16531 whole entry partner) above
Text: as §1, §2, §3, §4, §5

[5] = target: human E3 ligase component cereblon (CRBN) (Homo sapiens (Human), UniProt Q96SW2); experiment: Cereblon (CRBN) target engagement, NanoBRET TE Intracellular E3 Ligase Assay in transfected HEK-293T cells
Chain of human E3 ligase component cereblon (CRBN) (Q96SW2 whole entry): as the sequence (Q96SW2 whole entry) above
Chain of human E3 ligase component cereblon (CRBN) (Q16531 whole entry partner): as the sequence (Q16531 whole entry partner) above
Description: HEK-293T cells were harvested ca. 75% confluent with trypsin and plated (500,000 cells/well) in a 6-well tissue culture plate in 2 mL of Dulbecco's Modified Eagle Medium (DMEM)^+10% Fetal Bovine Serum (FBS) and incubated overnight at 37° C.
The NanoLue-CRBN fusion vector (Nluc-CRBN; Promega) contains the coding region of human E3 ligase component cereblon (CRBN) fused to the C-terminus of the NanoLuc luciferase coding region. A mixture of 10 ng Nluc-CRBN and 990 ng DDB1 Expression Vector (Promega) was added to 125 μL Opti-Minimum Essential Medium (Opti-MEM™; Thermo Fisher) along with 2 μL P3000 reagent (Thermo Fisher) in a 1.5 mL epppendorf tube. This solution was added to Lipofectamine 3000 transfection reagent (5 μL; Thermo Fisher) in Opti-MEM (125 μL), mixed well, and incubated for 15 minutes at room temperature. The transfection mixture was added dropwise to cells and incubated overnight at 37° C., 5% CO2. Following transfection, cells were washed once with PBS, and trypsin (250 μL) was added and incubated 30-45 see to dislodge cells. Complete media (2 mL) was added to resuspend cells to form a single cell suspension. Cells were centrifuged at 320×g for 5 min at room temperature, the supernatant was removed, and the cell pellet resuspended in Opti-MEM (3 mL; wash step repeated ×2). After final resuspension in 5 mL Opti-MEM, cells were counted and resuspended at 200,000 cells/mL in Opti-MEM.
Cereblon target engagement was monitored by Bioluminescence Resonance Energy Transfer (BRET) in transfected HEK-293T cells using the NanoBRET TE Intracellular E3 Ligase Assay (Promega). Briefly, 384-well plates (white opaque plates, Corning 3574, low binding surface) were seeded with transfected HEK-293T cells (38 μl/well). 2 μL of 10 μM CRBN tracer (diluted 1:5 in Tracer Dilution Buffer) was added to each well. Plates were centrifuged at 320×g for 1 min at room temperature. […] Plates were shaken for 2 minutes on a microplate shaker to mix compounds. Plates were centrifuged at 320×g for 1 min at room temperature, and subsequently incubated for 2 hours at 37° C.
After incubation, plates were allowed to cool to room temperature for 15 minutes. 20 μL of 3X Complete NanoBRET™ Nano-Glo® Substrate plus Inhibitor Solution (Promega, 1:166 Substrate and 1:500 dilution of Extracellular NanoLuc® Inhibitor diluted in Opti-MEM) were added to each well, Plates were incubated with shaking at room temperature for 3 minutes covered with foil. Plates were read on a CLARIOstar microplate reader (BMG LabTech), measuring at 450 nm (donor emission) and 610 nm (acceptor emission). The IC50 values were determined by regression to best fit four-parameter logistic curves using GraphPad Prism.

[6] = second (untitled) table after Table 3
[7] = Table 3, HEK 293T reporter cells
[8] = Table 3, 2 hours at 37° C., read-out: CRBN Binding EC50
[9] = second (untitled) table after Table 3, read-out: CRBN Binding EC50

Chain of IKZF2 (Helios) (Q9UKS7 whole entry, the tested form may be a part): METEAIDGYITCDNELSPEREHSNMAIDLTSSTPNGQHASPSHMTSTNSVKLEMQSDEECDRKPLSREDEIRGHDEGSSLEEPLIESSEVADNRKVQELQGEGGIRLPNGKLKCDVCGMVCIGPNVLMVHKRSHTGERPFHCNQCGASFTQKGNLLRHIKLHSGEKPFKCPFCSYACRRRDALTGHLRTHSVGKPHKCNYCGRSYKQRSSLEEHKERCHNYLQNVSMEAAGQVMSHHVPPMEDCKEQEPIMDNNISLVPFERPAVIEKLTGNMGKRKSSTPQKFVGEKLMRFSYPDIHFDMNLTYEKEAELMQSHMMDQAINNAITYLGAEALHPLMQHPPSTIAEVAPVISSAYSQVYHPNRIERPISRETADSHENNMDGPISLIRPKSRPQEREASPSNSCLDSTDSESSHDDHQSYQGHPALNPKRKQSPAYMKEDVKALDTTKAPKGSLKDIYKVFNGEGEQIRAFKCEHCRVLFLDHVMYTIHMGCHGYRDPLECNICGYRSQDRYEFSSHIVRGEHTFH
Chain of IKZF2 (Helios) (Q96SW2 whole entry, the tested form may be a part): as the sequence (Q96SW2 whole entry) above
Chain of IKZF2 (Helios) (Q16531 whole entry partner, the tested form may be a part): as the sequence (Q16531 whole entry partner) above

COC1CCC(C2CN([C@H]3CCCC[C@@H]3Oc3ccc4c(c3)CN(C3CCC(=O)NC3=O)C4=O)C2)CC1 (stereo partly drawn) [Compound 8, 3-(5-(((1S,2S)-2-(3-((trans)-4-methoxycyclohexyl)azetidin-1-yl)cyclohexyl)oxy)-1-oxoisoindolin-2-yl)piperidine-2,6-dione]
inhibition at 1 µM [1, 6]: 80.1%
IKZF2% Degradation @ 1 μM [1, 7]: 80.1%

COC1CCC(C2CN([C@H]3CCC[C@@H]3Oc3ccc4c(c3)CN(C3CCC(=O)NC3=O)C4=O)C2)CC1 (stereo partly drawn) [Compound 10, 3-(5-(((1S,2S)-2-(3-((trans)-4-methoxycyclohexyl)azetidin-1-yl)cyclopentyl)oxy)-1-oxoisoindolin-2-yl)piperidine-2,6-dione]
IKZF2% Degradation @ 1 μM [1, 7]: 80.8%
IKZF2% Degradation @ 1 μM [1, 6]: 80.8%

COC1CCC(C2CN([C@H]3CCCC[C@@H]3Oc3ccc4c(c3)CN(C3CCC(=O)NC3=O)C4=O)C2)CC1 (stereo partly drawn) [Compound 7, 3-(5-(((1S,2S)-2-(3-((cis)-4-methoxycyclohexyl)azetidin-1-yl)cyclohexyl)oxy)-1-oxoisoindolin-2-yl)piperidine-2,6-dione]
inhibition at 1 µM [1, 7]: 80.1%
IKZF2% Degradation @ 1 μM [1, 6]: 80.1%

N#CC1(C2CN([C@H]3CCCC[C@@H]3Oc3ccc4c(c3)CN(C3CCC(=O)NC3=O)C4=O)C2)CCC1 (stereo partly drawn) [Compound 23, 1-(1-((1S,2S)-2-((2-(2,6-dioxopiperidin-3-yl)-1-oxoisoindolin-5-yl)oxy)cyclohexyl)azetidin-3-yl)cyclobutane-1-carbonitrile]
DC50 [2]: > 30 µM
DC50 [3]: > 30 µM
DC50 [4]: > 30 µM
DC50 ([1]; HEK 293T reporter cells): 0.003 µM
inhibition at 1 µM [1, 7]: 87.4%
inhibition at 1 µM [1, 6]: 87.4%

O=C1NC(=O)C2(N3Cc4cc(O[C@H]5CCCC[C@@H]5N5CC(C6CCC(F)(F)CC6)C5)ccc4C3=O)CC1C2 [Compound 15, 1-(5-(((1S,2S)-2-(3-(4,4-difluorocyclohexyl)azetidin-1-yl)cyclohexyl)oxy)-1-oxoisoindolin-2-yl)-3-azabicyclo[3.1.1]heptane-2,4-dione]
EC50 [5, 8]: 6.21 µM
EC50 [5, 9]: 6.21 µM

COC1CCC(C2CN([C@H]3CCCC[C@@H]3Oc3ccc4c(c3)CN(C35CC(C3)C(=O)NC5=O)C4=O)C2)CC1 (stereo partly drawn) [Compound 11, 1-(5-(((1S,2S)-2-(3-((cis)-4-methoxycyclohexyl)azetidin-1-yl)cyclohexyl)oxy)-1-oxoisoindolin-2-yl)-3-azabicyclo[3.1.1]heptane-2,4-dione]
EC50 [5, 8]: > 10 µM
EC50 [5, 9]: > 10 µM

COC1CCC(C2CN([C@H]3CCC[C@@H]3Oc3ccc4c(c3)CN(C35CC(C3)C(=O)NC5=O)C4=O)C2)CC1 (stereo partly drawn) [Compound 12, 1-(5-(((1S,2S)-2-(3-((cis)-4-methoxycyclohexyl)azetidin-1-yl)cyclopentyl)oxy)-1-oxoisoindolin-2-yl)-3-azabicyclo[3.1.1]heptane-2,4-dione]
EC50 [5, 8]: > 10 µM
EC50 [5, 9]: > 10 µM

O=C1NC(=O)C2(N3Cc4cc(O[C@H]5CCC[C@@H]5N5CC(C6CCC(F)(F)CC6)C5)ccc4C3=O)CC1C2 [Compound 14, 1-(5-(((1S,2S)-2-(3-(4,4-difluorocyclohexyl)azetidin-1-yl)cyclopentyl)oxy)-1-oxoisoindolin-2-yl)-3-azabicyclo[3.1.1]heptane-2,4-dione]
EC50 [5, 8]: > 10 µM
EC50 [5, 9]: > 10 µM

COC1CCC(C2CN([C@H]3CCC[C@@H]3Oc3ccc4c(c3)CN(C3CCC(=O)NC3=O)C4=O)C2)CC1 (stereo partly drawn) [Compound 9, 3-(5-(((1S,2S)-2-(3-((cis)-4-methoxycyclohexyl)azetidin-1-yl)cyclopentyl)oxy)-1-oxoisoindolin-2-yl)piperidine-2,6-dione]
inhibition at 1 µM [1, 7]: 77.7%
inhibition at 1 µM [1, 6]: 77.7%

From patent publication US20240287037A1, “CYCLOALKYL COMPOUNDS AND PHARMACEUTICAL COMPOSITIONS THAT MODULATE IKZF2” (Plexium, Inc., priority 2021, published 2024)
